Measurements from patent US11981643B1, “Oxoimidazolidine derivatives as anti-tubercular agents” (priority 2023, dated 2024).
Values after ≈ are worked out from the molar mass of the structure shown. Where two headings read alike, the source gives them in different places.

Assays:
[1] = tested on: Mycobacterium tuberculosis H37Rv; experiment: Resazurin Microplate Assay (REMA), anti-tubercular activity, H37Rv strain; assay type: cell-based; settings: 192 h, read-out: Anti-tubercular activity against Mycobacterium tuberculosis, H37Rv (minimum inhibitory concentration, MIC)
[2] = H37Rv strain, ATCC: 25177, REMA, 8 days incubation at 37° C.

Row | Structure (SMILES) | melting point [°C] | MIC [1, 2] [µg/mL] | MIC ([1]; H37RV) [µg/mL]
1 | CN1/C(=C\c2ccc([N+](=O)[O-])cc2)C(=O)N/C1=N\C(=O)Nc1ccccc1F | 150 to 152 |  | 
2 | Cc1ccc(/C=C2/C(=O)N/C(=N\C(=O)Nc3ccccc3F)N2C)o1 | 196 to 198 |  | 
3 | CN1/C(=C\c2ccc([N+](=O)[O-])cc2)C(=O)N/C1=N\C(=O)Nc1cccc(F)c1 | 144 to 146 |  | 
4 | Cc1ccc(/C=C2/C(=O)N/C(=N\C(=O)Nc3cccc(F)c3)N2C)o1 | 188 to 190 |  | 
5 | CN1/C(=C\c2ccc([N+](=O)[O-])cc2)C(=O)N/C1=N\C(=O)Nc1ccc(F)cc1 | 156 to 158 |  | 
6 | Cc1ccc(/C=C2/C(=O)N/C(=N\C(=O)Nc3ccc(F)cc3)N2C)o1 | 186 to 188 |  | 
7 | CN1/C(=C\c2ccc(Br)o2)C(=O)N/C1=N\C(=O)Nc1ccc(Cl)cc1Cl | 198 to 200 |  | 
8 | CN1/C(=C\c2ccc(-c3ccccc3[N+](=O)[O-])o2)C(=O)N/C1=N\C(=O)Nc1ccc(Cl)cc1Cl | 206 to 208 |  | 
9 | Cc1ccc(/C=C2/C(=O)N/C(=N\C(=S)Nc3cccc(Cl)c3)N2C)o1 | 158 to 160 |  | 
10 | CN1/C(=C\c2ccc(Br)o2)C(=O)N/C1=N\C(=S)Nc1cccc(Cl)c1 | 140 to 142 |  | 
11 | Cc1ccc(/C=C2/C(=O)N/C(=N\C(=S)Nc3ccc(F)cc3)N2C)o1 | 146 to 148 |  | 
12 | CN1C(=Cc2ccc([N+](=O)[O-])cc2)C(=O)N/C1=N\C(=S)Nc1cccc(Cl)c1 (stereo in doubt) [Compound 4q, 1-(3-Chlorophenyl)-3-[(2E,5Z)-1-methyl-5-(4-nitrobenzylidene)-4-oxoimidazolidin-2-ylidene]thiourea] | 166 to 168 | 8 (≈ 19.2 µM) | 
13 | CN1C(=Cc2ccc(-c3ccccc3[N+](=O)[O-])o2)C(=O)N/C1=N\C(=S)Nc1ccc(F)cc1 (stereo in doubt) [Compound 4v, 1-(4-Fluorophenyl)-3-[(2E,5Z)-1-methyl-5-{[5-(2-nitrophenyl)furan-2-yl]methylidene}-4-oxoimidazolidin-2-ylidene]thiourea] | 158 to 160 | 16 (≈ 34.4 µM) | 
14 | CN1/C(=C\c2ccc(Br)o2)C(=O)N/C1=N\C(=O)Nc1cccc(F)c1 [Compound 4g, 1-{(2E,5Z)-5-[(5-Bromofuran-2-yl)methylidene]-1-methyl-4-oxoimidazolidin-2-ylidene}-3-(3-fluorophenyl)urea] | 196 to 198 |  | 8 (≈ 19.6 µM)
